Patent US10934310B2, “Inhibitors of Bruton's tyrosine kinase and method of their use” (JANSSEN PHARMACEUTICA NV, priority 2015, dated 2021)

Biological target: unphosphorylated-BTK kinase domain (UP-BTK), GST-tagged human BTK (389-659aa) (Homo sapiens (Human), UniProt Q06187)
Assay: BTK Kinase Lanthascreen Binding Assay
Conditions: for BTK_I_binding pIC50: pIC50 = negative log of the IC50 in molar
Method: BTK Kinase Lanthascreen Binding Assay:
A BTK kinase lanthascreen binding assay monitors compound binding to unphosphorylated-BTK kinase domain (UP-BTK), by competing with a fluorescent labeled tracer. […] Data were analyzed using Xlfit™ version 5.3 from ID Business Solutions (Guildford), Microsoft Excel add-in. pIC50 refers to the negative log of the IC50 in molar.

[1] = compound, 50 nM Tracer 236, 2 nM anti-GST antibody, 60 minutes
[2] = Lanthascreen binding, 60 minutes incubation

Sequence of unphosphorylated-BTK kinase domain (UP-BTK), GST-tagged human BTK (389-659aa) (Q06187 389-659): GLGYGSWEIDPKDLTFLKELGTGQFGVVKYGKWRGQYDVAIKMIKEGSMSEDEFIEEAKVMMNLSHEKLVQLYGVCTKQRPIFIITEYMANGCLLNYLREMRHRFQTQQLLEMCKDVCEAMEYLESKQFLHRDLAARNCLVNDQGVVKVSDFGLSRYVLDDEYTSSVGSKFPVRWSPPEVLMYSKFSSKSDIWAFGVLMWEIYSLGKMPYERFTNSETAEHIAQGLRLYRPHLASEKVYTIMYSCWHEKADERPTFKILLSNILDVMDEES

Question: How did the “BTK_I_binding pIC50” value [1] turn out when C=CC(=O)N[C@H]1CCC[C@@H](NC(=O)c2sc3nccc4c3c2NC(=O)N4c2ccc(Oc3ccccc3)cc2C)C1 (single isomer, unassigned) [Example 237, N-((1R,3S)-3-Acrylamidocyclohexyl)-5-(*S)-(2-methyl-4-phenoxyphenyl)-4-oxo-4,5-dihydro-3H-1-thia-3,5,8-triazaacenaphthylene-2-carboxamide] was run?
Answer: The value was 6.56.

Question: CC(=O)N[C@H]1CCCC[C@@H]1NC(=O)c1sc2nccc3c2c1NC(=O)N3c1ccc(Oc2ccccc2)cc1C [Example 55, N-((1S,2S)-2-Acetamidocyclohexyl)-5-(2-methyl-4-phenoxyphenyl)-4-oxo-4,5-dihydro-3H-1-thia-3,5,8-triazaacenaphthylene-2-carboxamide] was tested. Which “BTK_I_binding pIC50” value [1] did it give?
Answer: The value was 5.88.

Question: With C=CC(=O)N[C@H]1CCC[C@H]1NC(=O)c1sc2nccc3c2c1NC(=O)N3c1ccc(Oc2cncnc2)cc1 [Example 508, N-((1R,2S)-2-acrylamidocyclopentyl)-4-oxo-5-(4-(pyrimidin-5-yloxy)phenyl)-4,5-dihydro-3H-1-thia-3,5,8-triazaacenaphthylene-2-carboxamide] as the molecule, how does the “BTK_I_binding pIC50” value [2] read?
Answer: Its value is 7.48.

Question: With CC(=O)N[C@H]1CC[C@@H](NC(=O)c2sc3nccc4c3c2NC(=O)N4c2cnc(Oc3ccccc3)cc2C)CC1 (single isomer, unassigned) [Example 389, N-((1S,4S)-4-Acetamidocyclohexyl)-5-(*S)-(4-methyl-6-phenoxypyridin-3-yl)-4-oxo-4,5-dihydro-3H-1-thia-3,5,8-triazaacenaphthylene-2-carboxamide] as the molecule, how does the “BTK_I_binding pIC50” value [2] read?
Answer: Its value is 7.30.

Question: For Cc1cc(Oc2ccccc2)ccc1N1C(=O)Nc2c(C(=O)NC3CCCC3)sc3nccc1c23 [Example 81, N-Cyclopentyl-5-(*S)-(2-methyl-4-phenoxyphenyl)-4-oxo-4,5-dihydro-3H-1-thia-3,5,8-triazaacenaphthylene-2-carboxamide], which “BTK_I_binding pIC50” value [1] is on record?
Answer: The value was 7.03.

Question: For CC(=O)N[C@H]1CCC[C@H]1NC(=O)c1sc2nccc3c2c1NC(=O)N3c1ccnc(-c2ccccc2)c1 [Example 280, N-((1R,2S)-2-Acetamidocyclopentyl)-4-oxo-5-(2-phenylpyridin-4-yl)-4,5-dihydro-3H-1-thia-3,5,8-triazaacenaphthylene-2-carboxamide], which IC50 (read-out: BTK_I_binding pIC50 (converted)) is on record?
Answer: Its IC50 is greater than 1 µM.

Question: For C=CC(=O)N[C@@H]1CC[C@H](NC(=O)c2sc3nccc4c3c2NC(=O)N4c2ccnc(-c3ccccc3)c2)C1 [Example 198, N-((1S,3R)-3-Acrylamidocyclopentyl)-4-oxo-5-(2-phenylpyridin-4-yl)-4,5-dihydro-3H-1-thia-3,5,8-triazaacenaphthylene-2-carboxamide], which “BTK_I_binding pIC50” value [1] is on record?
Answer: Its value is 7.98.

Question: For N[C@H]1CCC[C@H]1NC(=O)c1sc2nccc3c2c1NC(=O)N3c1cc(-c2ccccc2)ccn1 [Example 267, N-((1R,2S)-2-Aminocyclopentyl)-4-oxo-5-(4-phenylpyridin-2-yl)-4,5-dihydro-3H-1-thia-3,5,8-triazaacenaphthylene-2-carboxamide], which “BTK_I_binding pIC50” value [1] is on record?
Answer: The value was 6.21.

Question: How did the “BTK_I_binding pIC50” value [2] turn out when CCC(=O)N[C@H]1CC[C@@H](NC(=O)c2sc3nccc4c3c2NC(=O)N4c2cnc(Oc3ccccc3)cc2C)C1 (single isomer, unassigned) [Example 361, 5-(*S)-(4Methyl-6-phenoxypyridin-3-yl)-4-oxo-N-((1R,3S)-3-propionamidocyclopentyl)-4,5-dihydro-3H-1-thia-3,5,8-triazaacenaphthylene-2-carboxamide] was run?
Answer: The value was 7.94.

Question: How did the “BTK_I_binding pIC50” value [2] turn out when CC(=O)N[C@H]1CCCC[C@H]1NC(=O)c1sc2nccc3c2c1NC(=O)N3c1cnc(Oc2ccccc2)cc1C (single isomer, unassigned) [Example 377, N-((1R,2S)-2-Acetamidocyclohexyl)-5-(*S)-(4-methyl-6-phenoxypyridin-3-yl)-4-oxo-4,5-dihydro-3H-1-thia-3,5,8-triazaacenaphthylene-2-carboxamide] was run?
Answer: The value was 6.83.

Question: Cc1cc(Oc2ccccc2)ccc1N1C(=O)Nc2c(C(=O)N[C@H]3CC[C@@H](N(C)C)CC3)sc3nccc1c23 [Example 99, N-((1S,4S)-4-(Dimethylamino)cyclohexyl)-5-(*S)-(2-methyl-4-phenoxyphenyl)-4-oxo-4,5-dihydro-3H-1-thia-3,5,8-triazaacenaphthylene-2-carboxamide] was tested. Which “BTK_I_binding pIC50” value [1] did it give?
Answer: The value was 7.03.

Question: With Cc1cc(Oc2ccccc2)ccc1N1C(=O)Nc2c(C(=O)N[C@H]3CC[C@@H](NC(=O)CN)C3)sc3nccc1c23 [Example 75, N-((1S,3R)-3-(2-Aminoacetamido)cyclopentyl)-5-(2-methyl-4-phenoxyphenyl)-4-oxo-4,5-dihydro-3H-1-thia-3,5,8-triazaacenaphthylene-2-carboxamide] as the molecule, how does the “BTK_I_binding pIC50” value [1] read?
Answer: The value was 7.30.

Question: With CCC(=O)N[C@H]1CC[C@H](NC(=O)c2sc3nccc4c3c2NC(=O)N4c2cnc(Oc3ccccc3)cc2C)C1 (single isomer, unassigned) [Example 399, 5-(*S)-(4-Methyl-6-phenoxypyridin-3-yl)-4-oxo-N-((1S,3S)-3-propionamidocyclopentyl)-4,5-dihydro-3H-1-thia-3,5,8-triazaacenaphthylene-2-carboxamide] as the molecule, how does the “BTK_I_binding pIC50” value [2] read?
Answer: Its value is 6.51.

Question: How did the “BTK_I_binding pIC50” value [1] turn out when C=CC(=O)N[C@H]1CC[C@@H](NC(=O)c2sc3nccc4c3c2NC(=O)N4c2ccc(Oc3ccccc3)cc2C)C1 (single isomer, unassigned) [Example 196, N-((1R,3S)-3-Acrylamidocyclopentyl)-5-(*S)-(2-methyl-4-phenoxyphenyl)-4-oxo-4,5-dihydro-3H-1-thia-3,5,8-triazaacenaphthylene-2-carboxamide] was run?
Answer: Its value is 7.12.

Question: For C=CC(=O)N[C@H]1CCCC[C@H]1NC(=O)c1sc2nccc3c2c1NC(=O)N3c1cnc(OC2CCC2)cc1C [Example 183, N-((1R,2S)-2-Acrylamidocyclohexyl)-5-(6-cyclobutoxy-4-methylpyridin-3-yl)-4-oxo-4,5-dihydro-3H-1-thia-3,5,8-triazaacenaphthylene-2-carboxamide], which “BTK_I_binding pIC50” value [1] is on record?
Answer: The value was 7.58.

Question: Cc1cc(Oc2ccccc2)ccc1N1C(=O)Nc2c(C(=O)N[C@H]3CCC[C@@H]3NC(=O)CN(C)C)sc3nccc1c23 (single isomer, unassigned) [Example 123, N-((1S,2S)-2-(2-(Dimethylamino)acetamido)cyclopentyl)-5-(*S)-(2-methyl-4-phenoxyphenyl)-4-oxo-4,5-dihydro-3H-1-thia-3,5,8-triazaacenaphthylene-2-carboxamide] was tested. Which “BTK_I_binding pIC50” value [1] did it give?
Answer: The value was 7.07.

Question: For CC(=O)N[C@H]1CCCC[C@H]1NC(=O)c1sc2nccc3c2c1NC(=O)N3c1ccc(Oc2ccccc2)cc1C (single isomer, unassigned) [Example 136, N-((1R,2S)-2-Acetamidocyclohexyl)-5-(*S)-(2-methyl-4-phenoxyphenyl)-4-oxo-4,5-dihydro-3H-1-thia-3,5,8-triazaacenaphthylene-2-carboxamide], which “BTK_I_binding pIC50” value [1] is on record?
Answer: Its value is 7.52.

Question: Which “BTK_I_binding pIC50” value [1] does the source give for CCC(=O)N[C@@H]1CC[C@H](NC(=O)c2sc3nccc4c3c2NC(=O)N4c2ccc(Oc3ccccc3)cc2C)C1 (single isomer, unassigned) [Example 87, 5-(*S)-(2-Methyl-4-phenoxyphenyl)-4-oxo-N-((1S,3R)-3-propionamidocyclopentyl)-4,5-dihydro-3H-1-thia-3,5,8-triazaacenaphthylene-2-carboxamide] here?
Answer: The value was 7.87.

Question: For CC(=O)N[C@H]1CC[C@@H](NC(=O)c2sc3nccc4c3c2NC(=O)N4c2ccc(Oc3ccccc3)cc2C)CC1 (single isomer, unassigned) [Example 94, N-((1S,4S)-4-Acetamidocyclohexyl)-5-(*S)-(2-methyl-4-phenoxyphenyl)-4-oxo-4,5-dihydro-3H-1-thia-3,5,8-triazaacenaphthylene-2-carboxamide], which “BTK_I_binding pIC50” value [1] is on record?
Answer: Its value is 7.59.

Question: How did the “BTK_I_binding pIC50” value [1] turn out when C=CC(=O)N[C@H]1CCCC[C@H]1NC(=O)c1sc2nccc3c2c1NC(=O)N3c1ccc(OC2CCC2)nc1C [Example 187, N-((1R,2S)-2-Acrylamidocyclohexyl)-5-(6-cyclobutoxy-2-methylpyridin-3-yl)-4-oxo-4,5-dihydro-3H-1-thia-3,5,8-triazaacenaphthylene-2-carboxamide] was run?
Answer: Its value is 7.30.

Question: C=CC(=O)N[C@H]1CCC[C@H]1NC(=O)c1sc2nccc3c2c1NC(=O)N3c1cc(-c2ccccc2)cnn1 [Example 320, N-((1R,2S)-2-Acrylamidocyclopentyl)-4-oxo-5-(5-phenylpyridazin-3-yl)-4,5-dihydro-3H-1-thia-3,5,8-triazaacenaphthylene-2-carboxamide] was tested. Which “BTK_I_binding pIC50” value [2] did it give?
Answer: The value was 7.23.

Question: Cc1cc(Oc2ccccc2)ccc1N1C(=O)Nc2c(C(=O)NC3CCCCC3)sc3nccc1c23 [Example 462, N-Cyclohexyl-5-(2-methyl-4-phenoxyphenyl)-4-oxo-4,5-dihydro-3H-1-thia-3,5,8-triazaacenaphthylene-2-carboxamide] was tested. Which “BTK_I_binding pIC50” value [2] did it give?
Answer: The value was 6.33.

Question: For N[C@H]1CCCC[C@H]1NC(=O)c1sc2nccc3c2c1NC(=O)N3c1cccc(-c2ccccc2)c1 [Example 141, 5-([1,1′-Biphenyl]-3-yl)-N-((1R,2S)-2-aminocyclohexyl)-4-oxo-4,5-dihydro-3H-1-thia-3,5,8-triazaacenaphthylene-2-carboxamide], which “BTK_I_binding pIC50” value [1] is on record?
Answer: The value was 7.01.

Question: C=CC(=O)N[C@H]1CC[C@@H](NC(=O)c2sc3nccc4c3c2NC(=O)N4c2ccc(Oc3ccccc3)cc2)CC1 [Example 119, N-((1S,4S)-4-Acrylamidocyclohexyl)-4-oxo-5-(4-phenoxyphenyl)-4,5-dihydro-3H-1-thia-3,5,8-triazaacenaphthylene-2-carboxamide] was tested. Which “BTK_I_binding pIC50” value [1] did it give?
Answer: Its value is 7.61.

Question: Which “BTK_I_binding pIC50” value [2] does the source give for C=CC(=O)N[C@H]1CC[C@H](NC(=O)c2sc3nccc4c3c2NC(=O)N4c2ccc(Oc3ccccc3)nc2)C1 (single isomer, unassigned) [Example 321, N-((1*S,3*S)-3-Acrylamidocyclopentyl)-4-oxo-5-(6-phenoxypyridin-3-yl)-4,5-dihydro-3H-1-thia-3,5,8-triazaacenaphthylene-2-carboxamide] here?
Answer: The value was 7.71.
